Columns and labels:
Assay type in all cases: in vivo
[1] = system: Echinochloa oryzacola Vasing.; test: Test Example 2: herbicidal activity, application during weed generation in submerged conditions (symbol A); conditions: Table 23; application herbicide amount 320 g/ha; grade 0-5 by criteria of Test Example 1
Procedure, shortened: (§1)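 Weeds emerging under flooded conditions were treated with compound formulated as an emulsion and diluted with water to the intended herbicide amount, poured onto the surface of 4 cm standing water. Seeds had been co-sown in alluvial soil; plants grew at 25° C. to 30° C. and were assessed after 3 weeks.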

Avena fatua = test: Test Example 5: herbicidal effect by foliage application, plastic box (symbol I); conditions: 320 g/ha, 3 weeks after application
Procedure, shortened: (§2)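 Seeds were sown in sterilized diluvial soil, covered with about 1.5 cm of soil and grown 14 days in a greenhouse at 25° C. to 30° C. An emulsifiable formulation diluted in water to a set rate was sprayed over foliage, and injury was scored 3 weeks later.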

Veronica persica = test: Test Example 5: herbicidal effect by foliage application, plastic box (symbol R); conditions: 320 g/ha, 3 weeks after application
Procedure, shortened: as §2

Digitaria ciliaris [2] = test: Test Example 4: herbicidal effect by soil treatment (symbol F); conditions: 320 g/ha
Procedure, shortened: (§3)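 Seeds were sown in sterilized diluvial soil, covered with about 1.5 cm of soil, and the soil surface was sprayed with a water-diluted emulsion of the compound at a predetermined rate. Plants grew in a greenhouse at 25° C. to 30° C.; effects were scored visually 3 weeks after application.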

Scirpus juncoides = test: Test Example 2: herbicidal activity, application during weed generation in submerged conditions (symbol B); conditions: Table 23; application herbicide amount 320 g/ha; grade 0-5 by criteria of Test Example 1
Procedure, shortened: as §1

Amaranthus retroflexus [3] = test: Test Example 5: herbicidal effect by foliage application, plastic box (symbol N); conditions: 320 g/ha, 3 weeks after application
Procedure, shortened: as §2

wheat = test: Test Example 5: effect on crop by foliage application, plastic box (symbol e); conditions: 320 g/ha, 3 weeks after application
Procedure, shortened: (§4)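 Crop seed is sown alongside grass and broadleaf weed species in spots in sterilized diluvial soil, then covered to a depth of about 1.5 cm. Plants grow in a greenhouse kept at 25° C. to 30° C.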

Amaranthus retroflexus [4] = test: Test Example 4: herbicidal effect by soil treatment (symbol N); conditions: 320 g/ha
Procedure, shortened: as §3

[5] = system: Echinochloa crus-galli var. crus-galli; test: Test Example 3: herbicidal effect by foliage application, Wagner pot (symbol H); conditions: application herbicide amount 320 g/ha
Procedure, shortened: (§5)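 Alluvial soil was flooded to a depth of 0.1–0.5 cm, seeded with the weeds and rice, and kept in a greenhouse at 25–30 °C. After 14 days of growth, the foliage received a small-sprayer application of emulsion diluted to the intended rate; injury was rated at 3 weeks.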

Abutilon theophrasti = test: Test Example 4: herbicidal effect by soil treatment (symbol M); conditions: 320 g/ha
Procedure, shortened: as §3

rice plant = test: Test Example 5: effect on crop by foliage application, plastic box (symbol b); conditions: 320 g/ha, 3 weeks after application
Procedure, shortened: as §4

rapeseed = test: Test Example 4: effect on crop by soil treatment (symbol g); conditions: 320 g/ha
Procedure, shortened: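 Grown at 25° C. to 30° C. in a greenhouse, the crops came from seed sown spot-wise in sterilized diluvial soil under roughly 1.5 cm of covering soil.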

Lolium multiflorum Lam. = test: Test Example 4: herbicidal effect by soil treatment (symbol K); conditions: 320 g/ha
Procedure, shortened: as §3

Leptochloa chinensis = test: Test Example 3: herbicidal effect by foliage application, Wagner pot (symbol D); conditions: application herbicide amount 320 g/ha
Procedure, shortened: as §5

Chenopodium album = test: Test Example 5: herbicidal effect by foliage application, plastic box (symbol O); conditions: 320 g/ha, 3 weeks after application
Procedure, shortened: as §2

Digitaria ciliaris [6] = test: Test Example 5: herbicidal effect by foliage application, plastic box (symbol F); conditions: 320 g/ha, 3 weeks after application
Procedure, shortened: as §2

[7] = system: Echinochloa crus-galli var. crus-galli; test: Test Example 4: herbicidal effect by soil treatment (symbol H); conditions: 320 g/ha
Procedure, shortened: as §3

Stellaria media = test: Test Example 5: herbicidal effect by foliage application, plastic box (symbol P); conditions: 320 g/ha, 3 weeks after application
Procedure, shortened: as §2

beet = test: Test Example 5: effect on crop by foliage application, plastic box (symbol f); conditions: 320 g/ha, 3 weeks after application
Procedure, shortened: as §4

| SMILES | Herbicidal effect grade, A: Echinochloa oryzacola Vasing. [1] | I: Avena fatua, herbicidal effect (criteria 0-5) (Avena fatua) | R: Veronica persica, herbicidal effect (criteria 0-5) (Veronica persica) | F: Digitaria ciliaris, herbicidal effect grade (Digitaria ciliaris [2]) | Herbicidal effect grade, B: Scirpus juncoides (Scirpus juncoides) | N: Amaranthus retroflexus, herbicidal effect (criteria 0-5) (Amaranthus retroflexus [3]) | e: wheat, effect on crop (criteria 0-5) (wheat) | N: Amaranthus retroflexus, herbicidal effect grade (Amaranthus retroflexus [4]) | herbicidal effect on H (Echinochloa crus-galli var. crus-galli), grade 0-5 [5] | M: Abutilon theophrasti, herbicidal effect grade (Abutilon theophrasti) | b: directly sowed rice plant, effect on crop (criteria 0-5) (rice plant) | g: rapeseed, effect grade on crop (rapeseed) | K: Lolium multiflorum Lam., herbicidal effect grade (Lolium multiflorum Lam.) | herbicidal effect on D (Leptochloa chinensis), grade 0-5 (Leptochloa chinensis) | O: Chenopodium album, herbicidal effect (criteria 0-5) (Chenopodium album) | F: Digitaria ciliaris, herbicidal effect (criteria 0-5) (Digitaria ciliaris [6]) | H: Echinochloa crus-galli var. crus-galli, herbicidal effect grade [7] | P: Stellaria media, herbicidal effect (criteria 0-5) (Stellaria media) | f: beet, effect on crop (criteria 0-5) (beet) | also measured |
| --- | --- | --- | --- | --- | --- | --- | --- | --- | --- | --- | --- | --- | --- | --- | --- | --- | --- | --- | --- | --- |
| C=CCN(CC=C)C(=O)OC1=C(c2c(C)cc(C)cc2C)C(=O)C(CC(C)=NOC)C1 (stereo not drawn) [1-153] | 4 (Herbicidal ratio of 70% or higher and lower than 90%) | 5 (Herbicidal ratio of 90% or more (almost completely withered)) | 0 (Herbicidal ratio of 5% or lower (almost no effect)) | 5 (Herbicidal ratio of 90% or more (almost completely withered)) | 1 (Herbicidal ratio of 5% or higher and lower than 20%) | 4 (Herbicidal ratio of 70% or higher and lower than 90%) | 5 (Herbicidal ratio of 90% or more (almost completely withered)) | 0 (Herbicidal ratio of 5% or lower (almost no effect)) | 5 (Herbicidal ratio of 90% or more (almost completely withered)) | 0 (Herbicidal ratio of 5% or lower (almost no effect)) | 5 (Herbicidal ratio of 90% or more (almost completely withered)) | 0 (Herbicidal ratio of 5% or lower (almost no effect)) | 4 (Herbicidal ratio of 70% or higher and lower than 90%) | 5 (Herbicidal ratio of 90% or more (almost completely withered)) | 0 (Herbicidal ratio of 5% or lower (almost no effect)) | 5 (Herbicidal ratio of 90% or more (almost completely withered)) | 0 (Herbicidal ratio of 5% or lower (almost no effect)) | 0 (Herbicidal ratio of 5% or lower (almost no effect)) | 0 (Herbicidal ratio of 5% or lower (almost no effect)) | – |
| CON=C(C)CC1CC(OC(=O)c2ccccc2OC(F)(F)F)=C(c2c(C)cc(C)cc2C)C1=O (stereo not drawn) [1-155] | 5 (Herbicidal ratio of 90% or more (almost completely withered)) | 5 (Herbicidal ratio of 90% or more (almost completely withered)) | 3 (Herbicidal ratio of 40% or higher and lower than 70%) | 5 (Herbicidal ratio of 90% or more (almost completely withered)) | 5 (Herbicidal ratio of 90% or more (almost completely withered)) | 2 (Herbicidal ratio of 20% or higher and lower than 40%) | 5 (Herbicidal ratio of 90% or more (almost completely withered)) | 5 (Herbicidal ratio of 90% or more (almost completely withered)) | 5 (Herbicidal ratio of 90% or more (almost completely withered)) | 5 (Herbicidal ratio of 90% or more (almost completely withered)) | 5 (Herbicidal ratio of 90% or more (almost completely withered)) | 4 (Herbicidal ratio of 70% or higher and lower than 90%) | 5 (Herbicidal ratio of 90% or more (almost completely withered)) | 5 (Herbicidal ratio of 90% or more (almost completely withered)) | 0 (Herbicidal ratio of 5% or lower (almost no effect)) | 5 (Herbicidal ratio of 90% or more (almost completely withered)) | 5 (Herbicidal ratio of 90% or more (almost completely withered)) | 2 (Herbicidal ratio of 20% or higher and lower than 40%) | 2 (Herbicidal ratio of 20% or higher and lower than 40%) | – |
| CON=C(C)CC1CC(OC(=O)Cc2ccc(OC)cc2)=C(c2c(C)cc(C)cc2C)C1=O (stereo not drawn) [1-156] | 5 (Herbicidal ratio of 90% or more (almost completely withered)) | – | – | 5 (Herbicidal ratio of 90% or more (almost completely withered)) | 5 (Herbicidal ratio of 90% or more (almost completely withered)) | – | – | 5 (Herbicidal ratio of 90% or more (almost completely withered)) | 5 (Herbicidal ratio of 90% or more (almost completely withered)) | 5 (Herbicidal ratio of 90% or more (almost completely withered)) | – | 4 (Herbicidal ratio of 70% or higher and lower than 90%) | 5 (Herbicidal ratio of 90% or more (almost completely withered)) | 5 (Herbicidal ratio of 90% or more (almost completely withered)) | – | – | 5 (Herbicidal ratio of 90% or more (almost completely withered)) | – | – | I: Avena fatua, herbicidal effect grade (Avena fatua): 5 (Herbicidal ratio of 90% or more (almost completely withered)); R: Veronica persica, herbicidal effect grade (Veronica persica): 4 (Herbicidal ratio of 70% or higher and lower than 90%); N: Amaranthus retroflexus, herbicidal effect grade (Amaranthus retroflexus [3]): 3 (Herbicidal ratio of 40% or higher and lower than 70%); e: wheat, effect on crop grade (wheat): 5 (Herbicidal ratio of 90% or more (almost completely withered)); b: directly sowed rice plant, effect on crop grade (rice plant): 5 (Herbicidal ratio of 90% or more (almost completely withered)); O: Chenopodium album, herbicidal effect grade (Chenopodium album): 2 (Herbicidal ratio of 20% or higher and lower than 40%); F: Digitaria ciliaris, herbicidal effect grade (Digitaria ciliaris [6]): 5 (Herbicidal ratio of 90% or more (almost completely withered)); P: Stellaria media, herbicidal effect grade (Stellaria media): 3 (Herbicidal ratio of 40% or higher and lower than 70%); f: beet, effect on crop grade (beet): 3 (Herbicidal ratio of 40% or higher and lower than 70%) |
